Values quoted from earlier work in patent publication US20220047626A1, “COMPOSITION OF A SPRAY FORMULA TO CONTROL MASTITIS IN BOVINES” (priority 2018, published 2022).

Settings: stated in the description, no method given

Row | Structure (SMILES) | viscosity
1 | CC(O)CO (stereo not drawn) [propylene glycol] | 52 cP
2 | OCC(O)CO [glycerin] | 950 cP
3 | OC[C@@H](O)[C@@H](O)[C@H](O)[C@@H](O)CO [sorbitol] | 200 cP
